Biological target: T1, ClpL (Streptococcus mutans, UniProt Q8DUH3)
T1 sequence (Q8DUH3 1-701): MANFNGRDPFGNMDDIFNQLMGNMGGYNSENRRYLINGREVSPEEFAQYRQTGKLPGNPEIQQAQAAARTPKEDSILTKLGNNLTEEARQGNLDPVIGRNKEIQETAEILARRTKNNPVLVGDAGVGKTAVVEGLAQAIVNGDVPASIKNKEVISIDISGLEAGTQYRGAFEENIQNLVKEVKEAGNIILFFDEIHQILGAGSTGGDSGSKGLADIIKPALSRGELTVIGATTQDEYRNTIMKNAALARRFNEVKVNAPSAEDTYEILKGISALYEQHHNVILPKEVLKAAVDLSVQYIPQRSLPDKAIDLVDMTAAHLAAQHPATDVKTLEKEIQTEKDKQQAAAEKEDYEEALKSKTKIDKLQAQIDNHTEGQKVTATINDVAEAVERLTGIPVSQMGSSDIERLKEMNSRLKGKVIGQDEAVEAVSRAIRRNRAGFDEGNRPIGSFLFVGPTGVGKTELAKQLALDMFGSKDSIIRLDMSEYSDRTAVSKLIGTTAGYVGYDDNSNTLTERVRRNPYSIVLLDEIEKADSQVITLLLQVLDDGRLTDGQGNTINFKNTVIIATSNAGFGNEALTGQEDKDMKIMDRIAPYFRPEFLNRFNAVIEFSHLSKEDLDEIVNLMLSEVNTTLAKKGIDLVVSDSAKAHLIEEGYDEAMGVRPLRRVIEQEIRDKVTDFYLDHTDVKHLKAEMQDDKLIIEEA
Assay: protection from limited trypsin proteolysis, SDS-PAGE
Format: binding
Details: 1 mM ADP (legend; methods say 5 mM), 20 mM MgCl2, room temperature

Nc1ncnc2c1ncn2[C@@H]1O[C@H](COP(=O)(O)OP(=O)(O)O)[C@@H](O)[C@H]1O [ADP]
protection from limited trypsin proteolysis, SDS-PAGE: Addition of ATP or ADP dramatically increased the stability of ClpL to trypsin digestion.
